Data as given in patent US8580825B2, “Oxadiazole inhibitors of leukotriene production” (Boehringer Ingelheim International GmbH, priority 2010, dated 2013).
pIC50: −log10 of the molar value.

What was measured:
[1] = target: T1, recombinant human FLAP protein (Homo sapiens, UniProt P20292); test: FLAP binding assay (Scintillation Proximity Assay, displacement of [125I]L-691,831); conditions: read-out: FLAP SPA IC50
T1 construct: made in house; host or cells: Sf9 insect cells (100,000xg membrane fraction used)
T1 sequence (P20292 1-161): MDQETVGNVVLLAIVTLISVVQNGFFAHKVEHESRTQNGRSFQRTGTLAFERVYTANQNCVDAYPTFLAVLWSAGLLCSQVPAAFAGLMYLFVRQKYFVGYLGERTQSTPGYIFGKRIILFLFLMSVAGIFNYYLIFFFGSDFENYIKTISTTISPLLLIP
Outline: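 Scintillation proximity displacement of [125I]L-691,831 (0.08 nM) from membranes of sf9 cells expressing recombinant human FLAP (5 μg/well) on WGA SPA beads, pH 7.5 Tris buffer. Plates shaken 2 h before counting. Non-specific binding defined with 10 μM unlabelled L-691,831.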

[2] = test system: synthesis of LTB4 in human whole blood; test: human whole blood LTB4 production inhibition assay; type: cell-based; conditions: calcimycin stimulated, read-out: hWB LTB4 IC50
Outline: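 Readout: plasma LTB4 by antibody-based HTRF. Compound added to heparinized human whole blood, 15 min 37° C; calcimycin 20 μM final (PBS pH 7.4), 30 min 37° C; spun 1500×g 5 min, plasma taken.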

| Structure (SMILES) | pIC50 [1] | pIC50 [2] |
| --- | --- | --- |
| CC(C)(O)Cn1cc(-c2nc([C@@](C)(c3ccc(-c4ccc(N)nc4)nc3)C3CC3)no2)cn1 [Example 139, 1-(4-{3-[(R)-1-(6′-Amino-[2,3′]bipyridinyl-5-yl)-1-cyclopropyl-ethyl]-[1,2,4]oxadiazol-5-yl}-pyrazol-1-yl)-2-methyl-propan-2-ol] | 7.48 | 7.17 |
| CN(C)C(=O)Cn1cc(-c2nc([C@@](C)(c3ccc(-c4ccc(N)nc4)nc3)C3CC3)no2)cn1 [Example 140, 2-(4-{3-[(R)-1-(6′-Amino-[2,3′]bipyridinyl-5-yl)-1-cyclopropyl-ethyl]-[1,2,4]oxadiazol-5-yl}-pyrazol-1-yl)-N,N-dimethyl-acetamide] | 7.36 | 6.82 |
| CC(C)[C@](C)(c1ccc(-c2cnc(N)nc2)nc1)c1noc(-c2cnn(CC(=O)NC(C)(C)C)c2)n1 [Example 141, 2-[4-(3-{(R)-1-[6-(2-Amino-pyrimidin-5-yl)-pyridin-3-yl]-1,2-dimethyl-propyl}-1,2,4-oxadiazol-5-yl)-pyrazol-1-yl]-N-tert-butyl-acetamide] | 8.08 | 7.17 |
| CC(C)NC(=O)Cn1cc(-c2nc([C@@](C)(c3ccc(-c4cnc(N)nc4)nc3)C(C)C)no2)cn1 [Example 142, 2-[4-(3-{(R)-1-[6-(2-Amino-pyrimidin-5-yl)-pyridin-3-yl]-1,2-dimethyl-propyl}-1,2,4-oxadiazol-5-yl)-pyrazol-1-yl]-N-isopropyl-acetamide] | 7.80 | 7.07 |
| CC(C)[C@](C)(c1ccc(-c2cnc(N)nc2)nc1)c1noc(-c2cnn(CC(=O)N(C)C(C)(C)C)c2)n1 [Example 143, 2-[4-(3-{(R)-1-[6-(2-Amino-pyrimidin-5-yl)-pyridin-3-yl]-1,2-dimethyl-propyl}-1,2,4-oxadiazol-5-yl)-pyrazol-1-yl]-N-tert-butyl-N-methyl-acetamide] | 8.04 | 7.29 |
| CC(C)[C@](C)(c1ccc(-c2cnc(N)nc2)nc1)c1noc(-c2cnn(CC(=O)N(C)C3CC3)c2)n1 [Example 144, 2-[4-(3-{(R)-1-[6-(2-Amino-pyrimidin-5-yl)-pyridin-3-yl]-1,2-dimethyl-propyl}-1,2,4-oxadiazol-5-yl)-pyrazol-1-yl]-N-cyclopropyl-N-methyl-acetamide] | 7.89 | 7.17 |
| CC(C)CNC(=O)Cn1cc(-c2nc([C@@](C)(c3ccc(-c4cnc(N)nc4)nc3)C(C)C)no2)cn1 [Example 145, 2-[4-(3-{(R)-1-[6-(2-Amino-pyrimidin-5-yl)-pyridin-3-yl]-1,2-dimethyl-propyl}-1,2,4-oxadiazol-5-yl)-pyrazol-1-yl]-N-isobutyl-acetamide] | 7.85 | 6.96 |
| CC(C)[C@](C)(c1ccc(-c2cnc(N)nc2)nc1)c1noc(-c2cnn(CC(=O)N(C)CC3CCCO3)c2)n1 (stereo partly drawn) [Example 146, 2-[4-(3-{(R)-1-[6-(2-Amino-pyrimidin-5-yl)-pyridin-3-yl]-1,2-dimethyl-propyl}-1,2,4-oxadiazol-5-yl)-pyrazol-1-yl]-N-methyl-N-(tetrahydro-furan-2-ylmethyl)-acetamide] | 8.03 | 7.28 |
| CC(C)[C@](C)(c1ccc(-c2cnc(N)nc2)nc1)c1noc(-c2cnn(CC(=O)NC3CC3)c2)n1 [Example 147, 2-[4-(3-{(R)-1-[6-(2-Amino-pyrimidin-5-yl)-pyridin-3-yl]-1,2-dimethyl-propyl}-1,2,4-oxadiazol-5-yl)-pyrazol-1-yl]-N-cyclopropyl-acetamide] | 8.07 | 6.77 |
| CC(C)[C@](C)(c1ccc(-c2cnc(N)nc2)nc1)c1noc(-c2cnn(CC(=O)NCC3CCCO3)c2)n1 (stereo partly drawn) [Example 148, 2-[4-(3-{(R)-1-[6-(2-Amino-pyrimidin-5-yl)-pyridin-3-yl]-1,2-dimethyl-propyl}-1,2,4-oxadiazol-5-yl)-pyrazol-1-yl]-N-(tetrahydro-furan-2-ylmethyl)-acetamide] | 7.66 | 6.54 |
| CCNC(=O)Cn1cc(-c2nc([C@@](C)(c3ccc(-c4cnc(N)nc4)nc3)C(C)C)no2)cn1 [Example 149, 2-[4-(3-{(R)-1-[6-(2-Amino-pyrimidin-5-yl)-pyridin-3-yl]-1,2-dimethyl-propyl}-1,2,4-oxadiazol-5-yl)-pyrazol-1-yl]-N-ethyl-acetamide] | 7.82 | 6.85 |
| COC1CCN(C(=O)Cn2cc(-c3nc([C@@](C)(c4ccc(-c5cnc(N)nc5)nc4)C(C)C)no3)cn2)C1 (stereo partly drawn) [Example 150, 2-[4-(3-{(R)-1-[6-(2-Amino-pyrimidin-5-yl)-pyridin-3-yl]-1,2-dimethyl-propyl}-1,2,4-oxadiazol-5-yl)-pyrazol-1-yl]-1-(3-methoxy-pyrrolidin-1-yl)-ethanone] | 7.38 | 6.74 |
| CC(C)[C@](C)(c1ccc(-c2cnc(N)nc2)nc1)c1noc(-c2cnn(CC(=O)N3CCOCC3)c2)n1 [Example 151, 2-[4-(3-{(R)-1-[6-(2-Amino-pyrimidin-5-yl)-pyridin-3-yl]-1,2-dimethyl-propyl}-1,2,4-oxadiazol-5-yl)-pyrazol-1-yl]-1-morpholin-4-yl-ethanone] | 7.49 | 6.72 |
| COCCNC(=O)Cn1cc(-c2nc([C@@](C)(c3ccc(-c4cnc(N)nc4)nc3)C(C)C)no2)cn1 [Example 152, 2-[4-(3-{(R)-1-[6-(2-Amino-pyrimidin-5-yl)-pyridin-3-yl]-1,2-dimethyl-propyl}-1,2,4-oxadiazol-5-yl)-pyrazol-1-yl]-N-(2-methoxy-ethyl)-acetamide] | 7.62 | 6.72 |
| COCCN(C)C(=O)Cn1cc(-c2nc([C@@](C)(c3ccc(-c4cnc(N)nc4)nc3)C(C)C)no2)cn1 [Example 153, 2-[4-(3-{(R)-1-[6-(2-Amino-pyrimidin-5-yl)-pyridin-3-yl]-1,2-dimethyl-propyl}-1,2,4-oxadiazol-5-yl)-pyrazol-1-yl]-N-(2-methoxy-ethyl)-N-methyl-acetamide] | 7.80 | 6.82 |
| CC(C)[C@](C)(c1ccc(-c2cnc(N)nc2)nc1)c1noc(-c2cnn(CC(=O)NC3CCOCC3)c2)n1 [Example 154, 2-[4-(3-{(R)-1-[6-(2-Amino-pyrimidin-5-yl)-pyridin-3-yl]-1,2-dimethyl-propyl}-1,2,4-oxadiazol-5-yl)-pyrazol-1-yl]-N-(tetrahydro-pyran-4-yl)-acetamide] | 7.68 | 6.26 |
| COC1CCN(C(=O)Cn2cc(-c3nc([C@@](C)(c4ccc(-c5cnc(N)nc5)nc4)C(C)C)no3)cn2)CC1 [Example 155, 2-[4-(3-{(R)-1-[6-(2-Amino-pyrimidin-5-yl)-pyridin-3-yl]-1,2-dimethyl-propyl}-1,2,4-oxadiazol-5-yl)-pyrazol-1-yl]-1-(4-methoxy-piperidin-1-yl)-ethanone] | 7.72 | 6.96 |
| CNc1cnc(-c2ccc([C@](C)(c3noc(-c4cnn(CC(C)(C)O)c4)n3)C3CC3)cn2)cn1 [Example 156, 1-[4-(3-{(R)-1-Cyclopropyl-1-[6-(5-methylamino-pyrazin-2-yl)-pyridin-3-yl]-ethyl}-[1,2,4]oxadiazol-5-yl)-pyrazol-1-yl]-2-methyl-propan-2-ol] | 7.57 | 7.27 |
| CNc1cnc(-c2ccc([C@@](C)(c3noc(-c4cnn(CC(C)(C)O)c4)n3)C3CC3)cn2)cn1 [Example 157, 1-[4-(3-{(S)-1-Cyclopropyl-1-[6-(5-methylamino-pyrazin-2-yl)-pyridin-3-yl]-ethyl}-[1,2,4]oxadiazol-5-yl)-pyrazol-1-yl]-2-methyl-propan-2-ol] | 6.38 | 6.01 |
| CC(C)(O)Cn1cc(-c2nc(C(C)(c3ccc(-c4cnc(N)c(F)c4)nc3)C3CC3)no2)cn1 (stereo not drawn) [Example 158, 1-(4-{3-[1-(6′-Amino-5′-fluoro-[2,3′]bipyridinyl-5-yl)-1-cyclopropyl-ethyl]-[1,2,4]oxadiazol-5-yl}-pyrazol-1-yl)-2-methyl-propan-2-ol] | 6.64 | 6.30 |
| CC(C)(O)Cn1cc(-c2nc(C(C)(c3ccc(-c4cnc5[nH]ccc5n4)nc3)C3CC3)no2)cn1 (stereo not drawn) [Example 159, 1-[4-(3-{1-Cyclopropyl-1-[6-(5H-pyrrolo[2,3-b]pyrazin-2-yl)-pyridin-3-yl]-ethyl}-[1,2,4]oxadiazol-5-yl)-pyrazol-1-yl]-2-methyl-propan-2-ol] | 7.57 | 6.78 |
| C[C@@](c1ccc(-c2cnc(N)cn2)nc1)(c1noc(-c2cnn(C3COC3)c2)n1)C1CC1 [Example 160, 5-(5-{(R)-1-Cyclopropyl-1[5-(1-oxetan-3-yl-1H-pyrazol-4-yl)-[1,2,4]oxadiazol-3-yl]-ethyl}-pyridin-2-yl)-pyrazin-2-ylamine] | 7.82 | 7.64 |
| C[C@@](c1ccc(-c2cnc(N)cn2)nc1)(c1noc(-c2cnn(CC#N)c2)n1)C1CC1 [Example 161, [4-(3-{(R)-1-[6-(5-Amino-pyrazin-2-yl)-pyridin-3-yl]-1-cyclopropyl-ethyl}-[1,2,4]oxadiazol-5-yl)-pyrazol-1-yl]-acetonitrile] | 7.68 | 7.49 |
| CC(C)(O)Cn1cc(-c2nc([C@@](C)(c3ccc(-c4cnc(N)nc4C#N)nc3)C3CC3)no2)cn1 [Example 163, 2-Amino-5-[5-((R)-1-cyclopropyl-1-{5-[1-(2-hydroxy-2-methyl-propyl)-1H-pyrazol-4-yl]-[1,2,4]oxadiazol-3-yl}-ethyl)-pyridin-2-yl]-pyrimidine-4-carbonitrile] | 6.54 | 6.46 |
